Source: the supplement of paper PMC4862054

How the values were obtained:
Experiment in all cases: normalised response (% of control), CellTox Green; higher = less cell death (100 = DMSO, 0 = benzethonium chloride kill control)
Details in all cases: incubation time: 72 h
BT-474 = system: BT-474
Method in brief: (§1)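 The table gives the normalised signal for a single concentration in each entry. Breast cancer cell lines were seeded (20 µl suspension) into 384-well plates holding compound at 5 concentrations in 10-fold steps over a compound-specific 10,000-fold range and incubated 72 h, then read for CellTox Green fluorescence (485/520 nm) and CellTiter-Glo luminescence. Normalisation on each plate used 0.1 % DMSO (100) and a positive kill control (0).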

BT-549 = system: BT-549
Method in brief: as §1

CAL-120 = system: CAL-120
Method in brief: as §1

DU-4475 = system: DU-4475
Method in brief: as §1

HCC1599 = system: HCC1599
Method in brief: as §1

MDA-MB-231 = system: MDA-MB-231
Method in brief: as §1

MDA-MB-436 = system: MDA-MB-436
Method in brief: as §1

MDA-MB-453 = system: MDA-MB-453
Method in brief: as §1

MDA-MB-468 = system: MDA-MB-468
Method in brief: as §1

CAL-148 = system: CAL-148
Method in brief: as §1

SMILES | normalised response (BT-474) [%] | normalised response (BT-549) [%] | normalised response (CAL-120) [%] | normalised response (DU-4475) [%] | normalised response (HCC1599) [%] | normalised response (MDA-MB-231) [%] | normalised response (MDA-MB-436) [%] | normalised response (MDA-MB-453) [%] | normalised response (MDA-MB-468) [%] | normalised response (CAL-148) [%]
COc1ccc(S(=O)(=O)Nc2cccnc2Nc2ccc(O)cc2)cc1 [ABT-751] (1000 nM) | 86.1 | 40.4 | 87.2 | 93.9 | 87.8 | 53.4 | 57.2 | 102 | -16.6 | –
COc1ccc(S(=O)(=O)Nc2cccnc2Nc2ccc(O)cc2)cc1 [ABT-751] (10000 nM) | 67.4 | 77.8 | 92 | 107 | 74.5 | 46.2 | 63.9 | 97 | 112 | 81.8
Cc1cc(Nc2nc(N[C@@H](C)c3ncc(F)cn3)ncc2Cl)[nH]n1 [AZD1480] (100 nM) | 71.6 | 95.4 | 98.6 | 97.6 | 93.8 | 98.9 | 101 | 106 | 128 | 99
Cc1cc(Nc2nc(N[C@@H](C)c3ncc(F)cn3)ncc2Cl)[nH]n1 [AZD1480] (1000 nM) | 95.3 | 88.9 | 87.1 | 98.2 | 99.3 | 76.7 | 105 | 105 | 84.2 | 85.8
CNC(=O)c1ccccc1Sc1ccc2c(/C=C/c3ccccn3)n[nH]c2c1 [Axitinib] (1000 nM) | 103 | 146 | 96.4 | 104 | 118 | 121 | 84.9 | 108 | 129 | 108
CNC(=O)c1ccccc1Sc1ccc2c(/C=C/c3ccccn3)n[nH]c2c1 [Axitinib] (10000 nM) | 99.4 | 90.9 | 92.5 | 108 | 118 | 96.8 | 89 | 111 | 156 | 22.8
CC(O)(CS(=O)(=O)c1ccc(F)cc1)C(=O)Nc1ccc(C#N)c(C(F)(F)F)c1 (configuration not stated) [Bicalutamide] (1000 nM) | 104 | 116 | 97.6 | 103 | 101 | 115 | 95.5 | 103 | 137 | 87.8
CC(O)(CS(=O)(=O)c1ccc(F)cc1)C(=O)Nc1ccc(C#N)c(C(F)(F)F)c1 (configuration not stated) [Bicalutamide] (10000 nM) | 103 | 116 | 103 | 104 | 91.5 | 125 | 78.1 | 99 | – | 105
CCNC(=O)CCC/C=C\C[C@@H]1[C@@H](/C=C/[C@@H](O)CCc2ccccc2)[C@H](O)C[C@@H]1O [Bimatoprost] (550 nM) | 98.5 | 73.3 | 97.7 | 97.2 | 97.1 | 88.8 | 67.2 | 99.3 | 69 | 104
CCNC(=O)CCC/C=C\C[C@@H]1[C@@H](/C=C/[C@@H](O)CCc2ccccc2)[C@H](O)C[C@@H]1O [Bimatoprost] (5500 nM) | 57 | 121 | 98.4 | 99.7 | 102 | 110 | 77 | 98 | – | 100
COc1cc(Nc2c(C#N)cnc3cc(OCCCN4CCN(C)CC4)c(OC)cc23)c(Cl)cc1Cl [Bosutinib] (1000 nM) | 94.2 | 106 | 104 | 101 | 100 | 93.6 | 107 | 114 | 164 | 92.5
COc1cc(Nc2c(C#N)cnc3cc(OCCCN4CCN(C)CC4)c(OC)cc23)c(Cl)cc1Cl [Bosutinib] (10000 nM) | 19.3 | 33.1 | 65.6 | 86.5 | 62 | -62.9 | 25.9 | 34.6 | -35 | 49
Cn1cc(C2=C(c3cn(C4CCN(Cc5ccccn5)CC4)c4ccccc34)C(=O)NC2=O)c2ccccc21 [Enzastaurin] (1000 nM) | 105 | 143 | 103 | 104 | 102 | 76.6 | 89.4 | 107 | 112 | 60
Cn1cc(C2=C(c3cn(C4CCN(Cc5ccccn5)CC4)c4ccccc34)C(=O)NC2=O)c2ccccc21 [Enzastaurin] (10000 nM) | 95.5 | 94.8 | 79.2 | 111 | 120 | 113 | 94.4 | 108 | 138 | 105
CC(C)(C)NC(=O)[C@H]1CC[C@H]2[C@@H]3CC[C@H]4NC(=O)C=C[C@]4(C)[C@H]3CC[C@]12C [Finasteride] (1000 nM) | 99.4 | 109 | 99.4 | 103 | 100 | 107 | 102 | 105 | 145 | 104
CC(C)(C)NC(=O)[C@H]1CC[C@H]2[C@@H]3CC[C@H]4NC(=O)C=C[C@]4(C)[C@H]3CC[C@]12C [Finasteride] (10000 nM) | 100 | 98.9 | 106 | 102 | 97.7 | 113 | 101 | 85.4 | 174 | 103
